Experimental data from patent publication US20230310352A1, “NOVEL COMPOSITIONS AND METHODS FOR THE TREATMENT OF LUNG FIBROSIS” (LAURENT PHARMACEUTICALS INC., priority 2020, published 2023).
Entries after “also recorded” stand apart in the source; their conditions may differ.

Columns and labels:
[1] = tested on: lung fibroblast-populated long microtissue; experiment: Lung fibroblast-populated long microtissue, model of traction bronchiectasis; format: cell-based, human
From the text: In a fibrotic lung, traction bronchiectasis occurs when small bronchial openings dilate due to traction force exerted by the surrounding fibrotic tissue. To model this unique fibrosis feature of the lung, stress concentrations were patterned to induce the dilation of tissue openings in the engineered microtissues described in Example 2. In order to further increase local stress levels, rigid micropillars were designed to support the long microtissue. In order to experimentally model the mechanical process of traction bronchiectasis, lung fibroblast-populated long microtissue was induced to fibrosis using TGF-β1 treatment (5 ng/ml). Continuous TGF-β1 treatment for 6 days induced increased expression of α-SMA and pro-collagen type 1 across the entire microtissue, in addition to dilated tissue openings around the micropillars. These effects were absent in untreated conditions. To examine the effects of fenretinide (2 μM and 4 μM doses) in inhibiting traction bronchiectasis, fenretinide was co-administered with TGF-β1 at the beginning of long microtissue culture and remained for 6 days. The unique geometry of the long microtissue allows tissue opening (hole) formation around micropillars under elevated contractile force generated by the differentiated myofibroblasts, mimicking the traction bronchiectasis. […] FIG. 9 presents the quantified opening area/total tissue area ratio.

[2] = tested on: Normal human lung fibroblast cells (NHLF cells, ATCC CRL-7000); experiment: COL1A1 mRNA transcript by qRT-PCR after TGF-β1 exposure in NHLF; format: cell-based; details: TGF-β1 2 ng/mL + fenretinide 1, 2, 3, 4 μM, 3 days
Method: NHLF cells were incubated for 3 days at 37° C. and treated with TGF-β1 (2 ng/mL) or TGF-β1 (2 ng/mL)+Fenretinide (1, 2, 3, 4 μM). At the end of the 3 day-treatment period, media was removed using a vacuum pump and total RNA was isolated using the TriReagent protocol (BioShop) and cDNA was obtained by reverse transcription using the SUPERSCRIPT® VILO®. COL1A1 transcript levels were determined by qRT-PCR using the Fast SyBR Master Mix and specific probes, and quantified following the ΔΔCT, normalized to PUM-1 expression as internal control. The experiments were performed in quadruplicate.

[3] = tested on: Normal human lung fibroblast cells (NHLF cells, ATCC CRL-7000); experiment: Pro-collagen 1A1 protein by ELISA after TGF-β1 exposure in NHLF; format: cell-based; details: TGF-β1 2 ng/mL + fenretinide 1, 2, 3, 4 μM, 3 days
Method: NHLF cells were incubated for 3 days at 37° C. and treated with TGF-β1 (2 ng/mL) or TGF-β1 (2 ng/mL)+Fenretinide (1, 2, 3, 4 μM). At the end of the 3 day-treatment period, media was collected in identified tubes, centrifuged at 2,000 g for 20 minutes and stored at −80° C. Cells were collected using trypsin, transferred in identified tubes and centrifuged at 1,000 g for 5 minutes. Cells were then washed twice in PBS 1X prior to be resuspended in ELISA lysis buffer. Pro-collagen 1A1 protein contents were determined using Abcam ELISA detection kit (Ab210966). Experiment performed in quadruplicate.

human lung microtissues = experiment: Contractile force of TGF-β1 treated 3D lung microtissues (micropillar deflection); format: cell-based; details: for contractile force, reduction vs TGF-β1 only treated condition, percentage change: Day 6
From the text: The lung microtissue chip system used is based on bio-MEMS technology that can assemble 3D cell-populated submillimeter microtissues in arrays of polydimethylsiloxane (PDMS) microwells. In each microwell, human lung fibroblasts or epithelial cells spontaneously contract and assemble the matrix proteins, such as collagen, into microtissues that anchor on top of an array of micropillars. The flexible micropillars serve as in situ force sensors that can report the contractile force generated by the tissue.
The effect of fenretinide on the inhibition of microtissue contractile force in a preventative treatment regimen was also measured. Increased contractile force is one of the main biomechanical features associated with fibrosis progression. The spontaneous contraction force generated by individual microtissues was determined from the deflection of micropillars based on cantilever bending theory. Micropillar deflection was measured using phase contrast microscopy, by comparing the deflected position of the centroid of each pillar top to the centroid of its base. Microtissue contraction force was measured for the same batch of samples on a daily basis for each pharmacological condition. The micropillar spring constant was determined based on the actual geometry of the micropillar and the elastic modulus of the PDMS. […] In contrast, the force developed by untreated samples plateaued after 1 day at around 80 μN. […] The 4 μM fenretinide dose reduced the contractile force by Day 6 to around 70 μN, a reduction of about 38% as compared to TGF-β1 treated condition.
The effect of fenretinide 4 μM dose on the inhibition of microtissue contractile force was tested in a therapeutic treatment regimen. Fibrosis was first allowed to progress for three days under the induction of TGF-β1 (5 ng/ml) and fenretinide was then added from day 3 to day 6 to model a therapeutic treatment. […] TGF-β1 present in media for 3 days and absent for following 3 days (mean±SD, n=8). However, on day 6 as compared to day 3, fenretinide at 2 μM reduced the tissue contractility by 10%, 4 μM fenretinide by 15% and the combination of 2 μM fenretinide and 1.6 mM pirfenidone by 26%.

[4] = tested on: Normal human lung fibroblast cells (NHLF cells, ATCC CRL-7000); experiment: αSMA mRNA transcript by qRT-PCR after TGF-β1 exposure in NHLF; format: cell-based; details: TGF-β1 2 ng/mL + fenretinide 1, 2, 3, 4 μM, 3 days, 5% FBS
Method: Normal human lung fibroblast cells (NHLF cells, ATCC CRL-7000, EMEM media; 5% FBS) were incubated for 3 days at 37° C. and treated with TGF-β1 (2 ng/mL) or TGF-β1 (2 ng/mL)+Fenretinide (1, 2, 3, 4 μM). At the end of the 3 day-treatment period, media was removed using a vacuum pump and total ribonucleic acid (RNA) was isolated using the TriReagent protocol (BioShop) and cDNA was obtained by reverse transcription using the SUPERSCRIPT® VILO®. αSMA transcript levels were determined by quantitative real-time Polymerase Chain Reaction (qRT-PCR) using the Fast SyBR Master Mix and specific probes, and quantified following the ΔΔCT, normalized to PUM-1 expression as internal control. The experiment was performed in quadruplicate (4 wells/condition).

Cftr.KO mice = details: cited from earlier work
VEGF = experiment: Mouse model of LPS-induced acute respiratory distress syndrome, BALF VEGF; format: in vivo; details: inhaled fenretinide, LPS-induced ARDS mouse model

Q: Which “expression level of α-SMA in the long microtissue” value ([1]; TGF-β1 5 ng/ml, 6 days, 4 μM) does the source give for `CC1=C(/C=C/C(C)=C/C=C/C(C)=C/C(=O)Nc2ccc(O)cc2)C(C)(C)CCC1` [fenretinide, 4-hydroxyphenyl retinamide] here?
A: strongly inhibited

Q: And the “pro-collagen expression in the long microtissue” value ([1]; TGF-β1 5 ng/ml, 6 days, 4 μM)?
A: a similar trend

Q: And the “tissue openings around micropillars (traction bronchiectasis)” value ([1]; co-administered with TGF-β1 5 ng/ml for 6 days, 2 μM and 4 μM)?
A: tissue openings remained small

Q: And the “induction of fibrotic marker COL1A1 gene expression (qRT-PCR)” value [2]?
A: attenuates, in a dose-dependent manner; also recorded: dose-dependent attenuation

Q: What about the “induction of Pro-collagen 1A1 protein levels (ELISA)” value [3] of the same compound?
A: attenuate and, at certain doses, completely abolish; also recorded: dose-dependent attenuation

Q: And the “induction of Pro-collagen 1A1 protein levels (ELISA)” value ([3]; listed as Fenretinide)?
A: dose-dependent attenuation

Q: And the inhibition at 4 µM (human lung microtissues; Homo sapiens, therapeutic treatment, 4 μM, read-out: inhibition of contractile force as compared to TGF-β1 only treated condition (positive control))?
A: 57%

Q: And the “TGF-β1-induced increase in contractile force” value (human lung microtissues; preventative treatment, 2 μM and 4 μM)?
A: inhibit TGF-131-induced increase in contractile force in a dose-dependent manner

Q: And the microtissue contractile force (human lung microtissues; preventative treatment, 2 μM, 6-day measurement (TGF-β1 only around 130 μN, untreated around 80 μN))?
A: 80-85 μN

Q: And the “contractile force, reduction vs TGF-β1 only treated condition, percentage change” value (human lung microtissues; preventative treatment, 2 μM)?
A: about 28%

Q: What about the “contractile force, reduction vs TGF-β1 only treated condition, percentage change” value (human lung microtissues; preventative treatment, 2 μM, listed as Fenret) of the same compound?
A: 28.0%

Q: And the “contractile force, reduction vs TGF-β1 only treated condition, percentage change” value (human lung microtissues; preventative treatment, 4 μM)?
A: about 38%

Q: What about the microtissue contractile force (human lung microtissues; preventative treatment, 4 μM, Day 6 (TGF-β1 only around 130 μN, untreated around 80 μN)) of the same compound?
A: around 70 μN

Q: What about the “contractile force, reduction vs TGF-β1 only treated condition, percentage change” value (human lung microtissues; preventative treatment, 4 μM, listed as Fenret) of the same compound?
A: 38.0%

Q: What about the “reduction of tissue contractility on day 6 as compared to day 3” value (human lung microtissues; therapeutic treatment, 2 μM) of the same compound?
A: 10%

Q: What about the “reduction of tissue contractility on day 6 as compared to day 3” value (human lung microtissues; therapeutic treatment, 4 μM) of the same compound?
A: 15%

Q: And the “contractile force, reduction vs TGF-β1 +3/−3 group on day 6, percentage change” value (human lung microtissues; therapeutic treatment, added day 3 to day 6, 2 μM)?
A: 34%

Q: And the “contractile force, reduction vs TGF-β1 +3/−3 group on day 6, percentage change” value (human lung microtissues; therapeutic treatment, added day 3 to day 6, 2 μM, listed as Fenret)?
A: 34.0%

Q: What about the “contractile force, reduction vs TGF-β1 +3/−3 group on day 6, percentage change” value (human lung microtissues; therapeutic treatment, added day 3 to day 6, 4 μM) of the same compound?
A: 34%

Q: And the “contractile force, reduction vs TGF-β1 +3/−3 group on day 6, percentage change” value (human lung microtissues; therapeutic treatment, added day 3 to day 6, 4 μM, listed as Fenret)?
A: 34.0%

Q: And the “induction of α-SMA fibrotic marker expression (mRNA, qRT-PCR)” value [4]?
A: attenuates, in a dose-dependent manner; also recorded: dose-dependent attenuation

Q: And the “levels of DHA and AA and sphingolipids imbalance in the lungs and plasma” value (Cftr.KO mice)?
A: correct the levels

Q: And the lung inflammation (Cftr.KO mice)?
A: reduction

Q: And the “pulmonary load of Pseudomonas aeruginosa” value (Cftr.KO mice)?
A: significant decrease

Q: And the “bronchoalveolar lavage fluid (BALF) VEGF” value (VEGF)?
A: significant increase
